Laboratory results published in patent US7521236B2, “Sulfur-oxidizing plant growth promoting rhizobacteria for enhanced canola performance” (priority 2002, dated 2009).

How the values were obtained:
Assay type in all cases: in vivo
[1] = tested on: canola; experiment: Field trial 2002, Dauphin, MB; conditions: canola seed, Dauphin field site
Method: In 2002, field trials were carried out using three canola PGPR strains. The canola trials were planted through commercial seed planter using bacteria inoculated powdered peat-based carrier material coated seeds. The cultivar used was the same as 2001. All field trials were randomized complete block design having each plot size of 6 m×1.5 m, with nine bacterial treatments along with three controls, all with six replicates. […] Plots were harvested at maturity, seed was collected and cleaned, and yield was measured based on 8.5% seed moisture. In addition, canola seed macronutrients (S, N, P, K, Ca and Mg) and micronutrients (Zn, Mn, Cu and Fe) uptake were also determined.

[2] = tested on: canola plants; experiment: Second growth room experiment: seed yield and seed nutrient uptake; conditions: seed, per plant
[3] = tested on: canola plants; experiment: Growth room experiment in sulfur deficient Melfort, SK soil: biomass and yield; conditions: 105 DAP
Method: (§1) Effects of bacterial inoculation on plant growth parameters were studied in a growth room with the four screened S-oxidizing strains (RAY12, RAY28, RAY132 and RAY209). More emphasis was given on plant growth characteristics including canola seed yield. Growth room assay was conducted with a sulfur deficient field soil, collected near Melfort, Saskatchewan, and was a loam (pH 7.8, electrical conductivity (mS/cm) 0.2 with following nutrient levels in ppm. nitrate nitrogen 7.3, phosphorous 14.6, potassium 187.1 and sulfur 9.5. Rhizobacterial strains RAY12, RAY28, RAY132 and RAY209 were used for the canola seed inoculation. The experiment was consisting of eight bacterial treatments along with three controls (control—no sulfur; elemental S control; and sulfate S control) each having three replications. One and half kg sieved soil (<5 mm mesh) was added to 16-cm plastic pots and the pots were kept in a growth room (22° C., 16 h light; 18° C., 8 h dark). Five seeds were planted in each of the pots and seedlings were thinned to one per pot after emergence. Daily watering to constant weight ensured similar matric potential between the pots. Canola plants were harvested at maturity (105 DAP) and stalk dry weight, pod number, pod weight and seed weight or yield determined. In another growth room experiment done in similar manner as previous one, canola seed yield, and, seed macronutrients (S, N, P, K, Ca and Mg) and micronutrients (Zn, B, Cu and Fe) uptake were determined.

[4] = tested on: canola plants; experiment: Second growth room experiment: seed yield and seed nutrient uptake; conditions: per plant; for B uptake / Ca uptake / Cu uptake / K uptake / Mg uptake / N uptake / P uptake / S uptake / Zn uptake: seed
Method: as §1

Row | Compound | Ca uptake [1] [kg/ha] | Cu uptake [1] [g/ha] | Fe uptake [1] [g/ha] | K uptake [1] [kg/ha] | Mg uptake [1] [kg/ha] | Mn uptake [1] [g/ha] | N uptake [1] [kg/ha] | P uptake [1] [kg/ha] | S uptake [1] [kg/ha] | Zn uptake [1] [g/ha] | Mn uptake [2] [µg] | pod no. [3] [NO./PLANT] | pod wt. [3] [G/PLANT] | seed wt. [3] [G/PLANT] | stalk dry wt. [3] [G/PLANT] | seed yield [4] [g] | B uptake [4] [µg] | Ca uptake [4] [mg] | Cu uptake [4] [µg] | K uptake [4] [mg] | other results
1 | [S] [ES, elemental sulfur] | 4.50 | 2.17 | 57.17 | 7.60 | 3.51 | 28.97 | 32.91 | 7.54 | 4.13 | 40.05 | 1.14 | 58 | 3.17 | 1.13 | 3.84 | 2.92 | 0.09 | 12.10 | 0.03 | 28.42 | Mg uptake [4]: 11.37 mg; N uptake [4]: 116.30 mg; P uptake [4]: 28.71 mg; S uptake [4]: 18.66 mg; Zn uptake [4]: 2.08 µg
2 | sulfate sulfur [SO4] | 5.02 | 2.61 | 68.20 | 9.09 | 4.14 | 37.22 | 39.74 | 8.71 | 5.10 | 51.32 | 1.22 | 78 | 4.20 | 1.71 | 4.56 | 3.11 | 0.13 | 11.71 | 0.03 | 27.52 | Mg uptake [4]: 12.12 mg; N uptake [4]: 116.30 mg; P uptake [4]: 28.24 mg; S uptake [4]: 15.76 mg; Zn uptake [4]: 1.72 µg
